This passage reports remaining activity results from paper PMC9719519, “Non-classical ferroptosis inhibition by a small molecule targeting PHB2” (Nature Communications, 2022).

Holding throughout (assay): biochemical
Common to all, as to design: Eurofins recombinant human kinase profiling, remaining kinase activity as % of control, 10 uM ATP
Conditions in all cases: ATP 10 uM; read-out: %Ctrl@10 μM

The target of one assay is T1, ALK4(h) (Homo sapiens, UniProt P36896).
T1 construct: gene ACVR1B
An excerpt:
(§1) To rapidly determine the biological target of YL-939, we first tested the activity of YL-939 against a panel of 401 recombinant human protein kinases by using the kinase profiling assay provided by Eurofins, since kinases are often the key components in various signal pathways[35],[36]. […] We then carried out affinity-based proteome profiling assay (ABPP) coupled with bioimaging to identify the biological target of YL-939 (Fig. 4A). To this end, we designed and synthesized a photoaffinity probe, YL-939-1 (Fig. 4A and Supplementary Fig. 5), which is YL-939 attached by a photo-crosslinker (L3) that contains a photo-reactive group diazirine and a clickable alkyne handle.

Another assay has as its target Bmx(h) (Homo sapiens, UniProt P51813).
Text: as §1

Another assay has as its target CDK1/cyclinB(h) (Homo sapiens, UniProt P06493).
Text: as §1

Another assay concerns the target CDK7/cyclinH/MAT1(h) (Homo sapiens, UniProt P50613).
Text: as §1

Another assay concerns the target DAPK2(h) (Homo sapiens, UniProt Q9UIK4).
Text: as §1

The next assay deals with T2, DCAMKL3(h) (Homo sapiens, UniProt Q9C098).
T2 construct: gene DCLK3
Text: as §1

The next assay concerns the target DYRK1A(h) (Homo sapiens, UniProt Q13627).
Text: as §1

In a further assay the target is EGFR(h) (Homo sapiens, UniProt P00533).
Text: as §1

The target of a further assay is EphA7(h) (Homo sapiens, UniProt Q15375).
Text: as §1

For the next assay, the target named is Fgr(h) (Homo sapiens, UniProt P09769).
Text: as §1

For the next assay, the target named is T3, GSK3α(h) (Homo sapiens, UniProt P49840).
T3 construct: gene GSK3A
Text: as §1

A further assay concerns the target HIPK2(h) (Homo sapiens, UniProt Q9H2X6).
Text: as §1

The target in another assay is T4, IKKε(h) (Homo sapiens, UniProt Q14164).
T4 construct: gene IKBKE
Text: as §1

Another assay concerns the target Lck(h) activated (Homo sapiens, UniProt P06239).
Text: as §1

In another assay the target is T5, MST4(h) (Homo sapiens, UniProt Q9P289).
T5 construct: gene STK26
Text: as §1

For a further assay, the target named is MYO3B(h) (Homo sapiens, UniProt Q8WXR4).
Text: as §1

The next assay has as its target PAK1(h) (Homo sapiens, UniProt Q13153).
Text: as §1

A further assay concerns the target PAK5(h) (Homo sapiens, UniProt Q9P286).
Text: as §1

The target in another assay is T6, PDK1(h) (Homo sapiens, UniProt O15530).
T6 construct: gene PDPK1
Text: as §1

Another assay addresses T7, PKCζ(h) (Homo sapiens, UniProt Q05513).
T7 construct: gene PRKCZ
Text: as §1

For a further assay, the target named is T8, SAPK2b(h) (Homo sapiens, UniProt Q15759).
T8 construct: gene MAPK11
Text: as §1

A further assay has as its target VRK1(h) (Homo sapiens, UniProt Q99986).
Text: as §1

The target of a further assay is T9, ZAP-70(h) (Homo sapiens, UniProt P43403).
T9 construct: gene ZAP70
Text: as §1

T7 sequence (Q05513 whole entry): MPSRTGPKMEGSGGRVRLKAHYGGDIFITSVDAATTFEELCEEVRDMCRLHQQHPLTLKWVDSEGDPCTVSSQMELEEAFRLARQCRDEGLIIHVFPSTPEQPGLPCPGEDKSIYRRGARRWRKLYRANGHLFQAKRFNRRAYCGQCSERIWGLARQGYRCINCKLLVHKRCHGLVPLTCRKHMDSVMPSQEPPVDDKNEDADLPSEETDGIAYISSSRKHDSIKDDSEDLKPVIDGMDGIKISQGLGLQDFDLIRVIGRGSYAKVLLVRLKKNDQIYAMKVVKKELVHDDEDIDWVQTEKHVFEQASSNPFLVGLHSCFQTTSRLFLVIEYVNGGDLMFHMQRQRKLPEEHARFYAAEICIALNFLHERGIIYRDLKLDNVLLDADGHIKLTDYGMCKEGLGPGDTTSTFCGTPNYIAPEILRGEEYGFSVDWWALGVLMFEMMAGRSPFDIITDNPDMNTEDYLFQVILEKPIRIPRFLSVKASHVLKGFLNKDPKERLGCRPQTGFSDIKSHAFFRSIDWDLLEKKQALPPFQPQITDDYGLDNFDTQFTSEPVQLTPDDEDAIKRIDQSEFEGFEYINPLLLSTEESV
PAK1(h), sequence (Q13153 whole entry): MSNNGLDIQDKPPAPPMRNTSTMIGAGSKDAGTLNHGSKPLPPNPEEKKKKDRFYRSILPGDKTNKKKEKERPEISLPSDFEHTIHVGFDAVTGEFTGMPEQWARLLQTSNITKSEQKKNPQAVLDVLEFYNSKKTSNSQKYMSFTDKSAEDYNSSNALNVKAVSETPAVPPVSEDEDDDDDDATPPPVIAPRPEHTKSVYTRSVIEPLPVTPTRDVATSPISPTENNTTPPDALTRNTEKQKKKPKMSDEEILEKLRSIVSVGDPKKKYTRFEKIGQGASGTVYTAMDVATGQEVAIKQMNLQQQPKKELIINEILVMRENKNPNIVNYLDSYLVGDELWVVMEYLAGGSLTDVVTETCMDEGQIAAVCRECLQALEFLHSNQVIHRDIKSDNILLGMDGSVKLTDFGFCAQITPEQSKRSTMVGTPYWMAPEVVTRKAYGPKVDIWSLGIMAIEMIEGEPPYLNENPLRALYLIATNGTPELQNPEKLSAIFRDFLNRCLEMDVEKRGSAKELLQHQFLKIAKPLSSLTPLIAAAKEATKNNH
VRK1(h), sequence (Q99986 whole entry): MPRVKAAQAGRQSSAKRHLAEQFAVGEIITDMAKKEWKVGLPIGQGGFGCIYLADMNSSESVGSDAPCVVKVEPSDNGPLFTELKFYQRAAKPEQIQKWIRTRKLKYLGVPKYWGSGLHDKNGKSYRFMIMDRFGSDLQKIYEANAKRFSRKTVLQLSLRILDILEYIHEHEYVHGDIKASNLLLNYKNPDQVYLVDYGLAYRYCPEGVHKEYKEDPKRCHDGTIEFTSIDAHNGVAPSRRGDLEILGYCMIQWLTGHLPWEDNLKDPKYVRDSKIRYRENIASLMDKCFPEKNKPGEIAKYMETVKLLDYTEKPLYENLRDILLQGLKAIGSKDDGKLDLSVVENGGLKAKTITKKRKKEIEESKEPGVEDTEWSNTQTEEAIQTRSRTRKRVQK
Bmx(h), sequence (P51813 whole entry): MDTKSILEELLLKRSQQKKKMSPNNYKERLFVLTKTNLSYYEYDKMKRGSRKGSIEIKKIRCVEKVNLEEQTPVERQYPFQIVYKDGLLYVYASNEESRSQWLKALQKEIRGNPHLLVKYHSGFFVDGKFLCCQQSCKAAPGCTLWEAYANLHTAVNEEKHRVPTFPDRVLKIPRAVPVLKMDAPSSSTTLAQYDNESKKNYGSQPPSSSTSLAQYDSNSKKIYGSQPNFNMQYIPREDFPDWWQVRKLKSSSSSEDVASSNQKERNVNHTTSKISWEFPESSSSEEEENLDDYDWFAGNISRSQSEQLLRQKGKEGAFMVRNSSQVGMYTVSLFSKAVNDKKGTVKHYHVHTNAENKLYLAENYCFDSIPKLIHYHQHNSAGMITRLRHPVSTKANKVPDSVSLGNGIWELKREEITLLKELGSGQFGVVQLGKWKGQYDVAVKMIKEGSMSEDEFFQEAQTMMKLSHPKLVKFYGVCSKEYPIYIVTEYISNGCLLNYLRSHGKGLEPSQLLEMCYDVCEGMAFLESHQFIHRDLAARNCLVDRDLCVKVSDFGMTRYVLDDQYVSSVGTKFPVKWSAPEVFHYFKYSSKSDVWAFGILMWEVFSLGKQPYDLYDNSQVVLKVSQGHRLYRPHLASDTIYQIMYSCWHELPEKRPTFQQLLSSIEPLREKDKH
DAPK2(h), sequence (Q9UIK4 whole entry): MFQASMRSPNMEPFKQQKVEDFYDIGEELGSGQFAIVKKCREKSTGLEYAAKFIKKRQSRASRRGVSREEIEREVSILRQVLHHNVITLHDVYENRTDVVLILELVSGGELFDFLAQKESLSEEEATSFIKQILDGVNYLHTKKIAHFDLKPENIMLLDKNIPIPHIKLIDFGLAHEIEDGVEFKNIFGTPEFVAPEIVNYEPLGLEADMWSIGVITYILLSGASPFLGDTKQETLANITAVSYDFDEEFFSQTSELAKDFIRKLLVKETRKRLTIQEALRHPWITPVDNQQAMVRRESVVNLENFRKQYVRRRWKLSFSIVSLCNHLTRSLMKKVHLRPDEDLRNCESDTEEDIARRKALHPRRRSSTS
T8 sequence (Q15759 whole entry): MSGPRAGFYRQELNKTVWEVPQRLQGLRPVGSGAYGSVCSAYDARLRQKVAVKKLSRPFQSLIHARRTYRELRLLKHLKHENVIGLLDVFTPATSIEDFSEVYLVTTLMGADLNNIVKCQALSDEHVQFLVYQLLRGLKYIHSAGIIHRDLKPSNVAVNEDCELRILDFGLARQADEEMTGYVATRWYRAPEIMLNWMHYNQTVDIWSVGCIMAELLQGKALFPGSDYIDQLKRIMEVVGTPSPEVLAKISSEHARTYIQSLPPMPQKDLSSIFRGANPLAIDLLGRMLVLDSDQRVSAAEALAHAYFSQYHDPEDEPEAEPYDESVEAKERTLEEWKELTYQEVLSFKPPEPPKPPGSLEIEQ
T9 sequence (P43403 whole entry): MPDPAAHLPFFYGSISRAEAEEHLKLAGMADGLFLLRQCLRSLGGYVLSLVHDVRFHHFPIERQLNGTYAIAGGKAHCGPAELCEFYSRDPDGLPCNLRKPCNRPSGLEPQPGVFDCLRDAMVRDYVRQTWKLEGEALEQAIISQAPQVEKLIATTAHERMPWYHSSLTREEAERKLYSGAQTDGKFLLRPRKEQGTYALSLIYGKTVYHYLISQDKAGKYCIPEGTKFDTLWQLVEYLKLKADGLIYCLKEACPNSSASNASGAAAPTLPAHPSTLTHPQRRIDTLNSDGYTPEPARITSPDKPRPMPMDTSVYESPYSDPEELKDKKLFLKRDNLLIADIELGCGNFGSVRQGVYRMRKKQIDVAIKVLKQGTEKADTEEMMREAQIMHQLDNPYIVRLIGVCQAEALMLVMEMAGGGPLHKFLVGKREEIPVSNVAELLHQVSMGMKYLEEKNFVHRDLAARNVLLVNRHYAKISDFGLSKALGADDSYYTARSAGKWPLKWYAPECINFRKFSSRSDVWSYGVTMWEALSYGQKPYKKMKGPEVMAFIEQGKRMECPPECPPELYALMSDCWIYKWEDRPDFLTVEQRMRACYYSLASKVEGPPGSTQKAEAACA
T6 sequence (O15530 whole entry): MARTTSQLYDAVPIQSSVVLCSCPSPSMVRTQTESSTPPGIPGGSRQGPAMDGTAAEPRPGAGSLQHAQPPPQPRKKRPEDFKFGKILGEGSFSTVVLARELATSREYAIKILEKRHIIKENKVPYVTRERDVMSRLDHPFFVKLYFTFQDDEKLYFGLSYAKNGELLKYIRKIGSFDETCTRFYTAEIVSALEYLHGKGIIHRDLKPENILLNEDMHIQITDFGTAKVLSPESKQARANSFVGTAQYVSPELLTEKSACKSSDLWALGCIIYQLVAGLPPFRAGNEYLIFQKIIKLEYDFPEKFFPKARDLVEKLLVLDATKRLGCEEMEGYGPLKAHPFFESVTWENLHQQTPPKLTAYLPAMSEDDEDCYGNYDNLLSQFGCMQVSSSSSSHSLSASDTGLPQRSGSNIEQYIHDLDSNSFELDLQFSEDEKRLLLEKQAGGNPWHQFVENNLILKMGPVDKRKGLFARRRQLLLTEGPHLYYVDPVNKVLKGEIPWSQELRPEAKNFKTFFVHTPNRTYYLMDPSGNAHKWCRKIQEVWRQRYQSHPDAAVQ
Lck(h) activated, sequence (P06239 whole entry): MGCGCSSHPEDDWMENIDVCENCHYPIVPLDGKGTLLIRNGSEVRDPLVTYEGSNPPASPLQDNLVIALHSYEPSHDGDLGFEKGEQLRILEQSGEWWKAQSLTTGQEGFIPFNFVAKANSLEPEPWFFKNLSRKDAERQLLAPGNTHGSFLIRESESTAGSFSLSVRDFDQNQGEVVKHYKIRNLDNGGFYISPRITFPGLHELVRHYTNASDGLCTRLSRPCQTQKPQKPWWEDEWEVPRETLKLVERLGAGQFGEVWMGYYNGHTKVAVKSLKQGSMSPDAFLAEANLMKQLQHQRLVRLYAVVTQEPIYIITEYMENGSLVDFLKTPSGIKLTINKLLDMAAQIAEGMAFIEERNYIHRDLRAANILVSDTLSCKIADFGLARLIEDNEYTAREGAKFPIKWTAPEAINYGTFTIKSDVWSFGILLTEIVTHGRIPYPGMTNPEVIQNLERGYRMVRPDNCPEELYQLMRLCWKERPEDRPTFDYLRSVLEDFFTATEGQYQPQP

On to `C1=C(c2nc(-c3cnn(C4CCNCC4)c3)cn3cc(-c4ccccc4)nc23)CCOC1` [YL-939], for which the remaining activity at 10 µM worked out at 117% at ALK4(h); 87% on Bmx(h); 92% on CDK1/cyclinB(h); 92% on CDK7/cyclinH/MAT1(h); 138% at DAPK2(h); 66% on DCAMKL3(h). Moreover, the remaining activity at 10 µM at DYRK1A(h) is 83%; at EGFR(h), 87%; on EphA7(h), 99%; at Fgr(h), 76%; at GSK3α(h), 119%; on HIPK2(h) it was 90%. Besides, the remaining activity at 10 µM at IKKε(h) was found to be 113%; at Lck(h) activated it was 77%; at MST4(h), 112%; on MYO3B(h) it was 89%; on PAK1(h) it was 85%; at PAK5(h), 95%. The remaining activity at 10 µM is 127% on PDK1(h); 94% on PKCζ(h); 84% at SAPK2b(h); 87% on VRK1(h); 97% on ZAP-70(h).
